Reference: ChEMBL document CHEMBL1149774, “Synthesis of N-(5,7-diamino-3-phenyl-quinoxalin-2-yl)-3,4,5-substituted anilines and N-[4[(5,7-diamino-3-phenylquinoxalin-2-yl)amino]benzoyl]-l-glutamic acid diethyl ester: evaluation of in vitro anti-cancer and anti-folate activities” (Eur J Med Chem, 2008)
Activity calls are given as the source filed them. No cut-off for these calls is given here.

How the values were obtained:
[1] = test system: MOLT-4; test: Growth inhibition of human MOLT4 cells after 48 hrs by SRB staining method; type: functional; conditions: MOLT-4, 48 h; for CC50: read-out: pLC50 (the source's name) (converted); for TGI: read-out: pTGI (converted)
[2] = test system: SW-620; test: Growth inhibition of human SW620 cells after 48 hrs by SRB staining method; type: functional; conditions: SW-620, 48 h; for CC50: read-out: pLC50 (the source's name) (converted); for TGI: read-out: pTGI (converted)
[3] = test system: HOP-62; test: Growth inhibition of human HOP62 cells after 48 hrs by SRB staining method; type: functional; conditions: HOP-62, 48 h; for TGI: read-out: pTGI (converted)
[4] = test system: NCI-H322M; test: Growth inhibition of human NCI-H322M cells after 48 hrs by SRB staining method; type: functional; conditions: for TGI: read-out: pTGI (converted)
[5] = test system: OVCAR-4; test: Growth inhibition of human OVCAR4 cells after 48 hrs by SRB staining method; type: functional; conditions: OVCAR-4, 48 h; for TGI: read-out: pTGI (converted)
[6] = test system: HCC 2998; test: Growth inhibition of human HCC2998 cells after 48 hrs by SRB staining method; type: functional; conditions: HCC 2998, 48 h
[7] = test system: HT-29; test: Growth inhibition of human HT29 cells after 48 hrs by SRB staining method; type: functional; conditions: HT-29, 48 h; for TGI: read-out: pTGI (converted)
[8] = test system: HCT-15; test: Growth inhibition of human HCT15 cells after 48 hrs by SRB staining method; type: functional; conditions: HCT-15, 48 h; for TGI: read-out: pTGI (converted)
[9] = test system: Malme-3M; test: Growth inhibition of human MALME-3M cells after 48 hrs by SRB staining method; type: functional
[10] = test system: LOX IMVI; test: Growth inhibition of human LOX IMVI cells after 48 hrs by SRB staining method; type: functional; conditions: for TGI: read-out: pTGI (converted)
[11] = test system: SF-539; test: Growth inhibition of human SF539 cells after 48 hrs by SRB staining method; type: functional; conditions: SF-539, 48 h; for TGI: read-out: pTGI (converted)
[12] = test system: BT-549; test: Growth inhibition of human BT549 cells after 48 hrs by SRB staining method; type: functional; conditions: BT-549, 48 h; for CC50: read-out: pLC50 (the source's name) (converted); for TGI: read-out: pTGI (converted)
[13] = test system: OVCAR-5; test: Growth inhibition of human OVCAR5 cells after 48 hrs by SRB staining method; type: functional; conditions: OVCAR-5, 48 h; for TGI: read-out: pTGI (converted)
[14] = test system: NCI-H226; test: Growth inhibition of human NCI-H226 cells after 48 hrs by SRB staining method; type: functional; conditions: NCI-H226, 48 h; for TGI: read-out: pTGI (converted)
[15] = test system: UO-31; test: Growth inhibition of human UO31 cells after 48 hrs by SRB staining method; type: functional; conditions: UO-31, 48 h; for CC50: read-out: pLC50 (the source's name) (converted); for TGI: read-out: pTGI (converted)
[16] = target: T1, Dihydrofolate reductase (Homo sapiens) (UniProt P00374); test: Inhibition of human dihydrofolate reductase at 10 uM
T1 sequence (whole entry): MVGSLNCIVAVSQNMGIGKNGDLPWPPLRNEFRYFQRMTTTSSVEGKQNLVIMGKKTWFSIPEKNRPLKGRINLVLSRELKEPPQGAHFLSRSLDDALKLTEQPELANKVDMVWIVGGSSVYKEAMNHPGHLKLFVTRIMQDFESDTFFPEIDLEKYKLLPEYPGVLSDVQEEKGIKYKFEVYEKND

[17] = test system: SN12C; test: Growth inhibition of human SN12C cells after 48 hrs by SRB staining method; type: functional; conditions: for CC50: read-out: pLC50 (the source's name) (converted); for TGI: read-out: pTGI (converted)
[18] = test system: RPMI-8226; test: Growth inhibition of human RPMI8226 cells after 48 hrs by SRB staining method; type: functional; conditions: RPMI-8226, 48 h; for CC50: read-out: pLC50 (the source's name) (converted); for TGI: read-out: pTGI (converted)
[19] = test system: COLO 205; test: Growth inhibition of human COLO205 cells after 48 hrs by SRB staining method; type: functional; conditions: COLO 205, 48 h; for TGI: read-out: pTGI (converted)
[20] = Growth inhibition of human HS 578T cells after 48 hrs by SRB staining method; type: functional; conditions: for CC50: read-out: pLC50 (the source's name) (converted); for TGI: read-out: pTGI (converted)
[21] = test system: NCI-H522; test: Growth inhibition of human NCI-H522 cells after 48 hrs by SRB staining method; type: functional; conditions: NCI-H522, 48 h; for TGI: read-out: pTGI (converted)
[22] = test system: OVCAR-3; test: Growth inhibition of human OVCAR-3 cells after 48 hrs by SRB staining method; type: functional; conditions: OVCAR-3, 48 h; for TGI: read-out: pTGI (converted)
[23] = test system: SK-MEL-2; test: Growth inhibition of human SK-MEL-2 cells after 48 hrs by SRB staining method; type: functional; conditions: SK-MEL-2, 48 h; for TGI: read-out: pTGI (converted)
[24] = test system: HL-60; test: Growth inhibition of human HL60 cells after 48 hrs by SRB staining method; type: functional; conditions: HL-60, 48 h
[25] = test system: SNB-75; test: Growth inhibition of human SNB75 cells after 48 hrs by SRB staining method; type: functional; conditions: SNB-75, 48 h
[26] = test system: HOP-92; test: Growth inhibition of human HOP92 cells after 48 hrs by SRB staining method; type: functional; conditions: HOP-92, 48 h

COc1ccc(Nc2nc3cc(N)cc(N)c3nc2-c2ccccc2)cc1OC
GI50 [1]: 6.92 µM
CC50 [1]: > 100 µM
TGI [1]: > 100 µM
GI50 [2]: 15.5 µM
CC50 [2]: 83.2 µM
TGI [2]: 36.3 µM
GI50 [3]: 34.7 µM
LC50 [3]: > 100 µM
TGI [3]: > 100 µM
GI50 [4]: > 100 µM
LC50 [4]: > 100 µM
TGI [4]: 25.1 µM
GI50 [5]: 18.6 µM
LC50 [5]: > 100 µM
TGI [5]: 52.5 µM
GI50 [6]: 18.2 µM
LC50 [6]: 85.1 µM
TGI ([6]; read-out: pTGI (converted)): 39.8 µM
GI50 [7]: 25.1 µM
LC50 [7]: > 100 µM
TGI [7]: 52.5 µM
GI50 [8]: 28.8 µM
LC50 [8]: > 100 µM
TGI [8]: > 100 µM
GI50 [9]: 15.8 µM
LC50 [9]: 81.3 µM
TGI ([9]; read-out: pTGI (converted)): 35.5 µM
GI50 [10]: 25.7 µM
LC50 [10]: > 100 µM
TGI [10]: 72.4 µM
GI50 [11]: 16.2 µM
LC50 [11]: 87.1 µM
TGI [11]: 37.2 µM
GI50 [12]: 25.7 µM
CC50 [12]: > 100 µM
TGI [12]: 81.3 µM
GI50 [13]: 29.5 µM
LC50 [13]: > 100 µM
TGI [13]: 72.4 µM
GI50 [14]: 18.6 µM
LC50 [14]: > 100 µM
TGI [14]: 57.5 µM
GI50 [15]: 28.2 µM
CC50 [15]: > 100 µM
TGI [15]: > 100 µM
Activity [16]: inactive
GI50 [17]: 16.6 µM
CC50 [17]: > 100 µM
TGI [17]: 43.7 µM
GI50 [18]: 7.94 µM
CC50 [18]: 87.1 µM
TGI [18]: 28.2 µM
GI50 [19]: 20 µM
LC50 [19]: 85.1 µM
TGI [19]: 40.7 µM
GI50 [20]: 18.6 µM
CC50 [20]: > 100 µM
TGI [20]: 50.1 µM
GI50 [21]: 28.8 µM
LC50 [21]: > 100 µM
TGI [21]: > 100 µM
GI50 [22]: 30.2 µM
LC50 [22]: > 100 µM
TGI [22]: > 100 µM
GI50 [23]: 26.9 µM
LC50 [23]: > 100 µM
TGI [23]: > 100 µM

Nc1cc(N)c2nc(-c3ccccc3)c(Nc3ccc(F)cc3)nc2c1
GI50 [1]: > 100 µM
CC50 [1]: > 100 µM
TGI [1]: > 100 µM
GI50 [2]: 13.5 µM
CC50 [2]: > 100 µM
TGI [2]: 38.9 µM
GI50 [3]: 38 µM
TGI [3]: > 100 µM
GI50 [4]: 17 µM
TGI [4]: 35.5 µM
GI50 [5]: 13.5 µM
TGI [5]: 49 µM
GI50 [7]: 18.6 µM
TGI [7]: 35.5 µM
GI50 [8]: 12.6 µM
TGI [8]: 38 µM
GI50 [10]: 4.79 µM
TGI [10]: 18.2 µM
GI50 [11]: 11 µM
TGI [11]: 24.5 µM
GI50 [12]: 12 µM
CC50 [12]: 63.1 µM
TGI [12]: 26.9 µM
GI50 [13]: 38 µM
TGI [13]: > 100 µM
GI50 [14]: 17.8 µM
TGI [14]: 47.9 µM
GI50 [15]: 17 µM
CC50 [15]: > 100 µM
TGI [15]: 61.7 µM
GI50 [24]: 11.2 µM
CC50 ([24]; read-out: pLC50 (the source's name) (converted)): > 100 µM
TGI ([24]; read-out: pTGI (converted)): > 100 µM
Activity [16]: inactive
GI50 [17]: 15.8 µM
CC50 [17]: 74.1 µM
TGI [17]: 33.9 µM
GI50 [18]: 4.68 µM
CC50 [18]: > 100 µM
TGI [18]: 34.7 µM
GI50 [19]: 20.4 µM
TGI [19]: 56.2 µM
GI50 [20]: 19.1 µM
CC50 [20]: > 100 µM
TGI [20]: 58.9 µM
GI50 [21]: > 100 µM
TGI [21]: > 100 µM
GI50 [22]: 4.68 µM
TGI [22]: 17.8 µM
GI50 [23]: 29.5 µM
TGI [23]: > 100 µM
GI50 [25]: 20.9 µM
TGI ([25]; read-out: pTGI (converted)): 41.7 µM
GI50 [26]: 13.2 µM
TGI ([26]; read-out: pTGI (converted)): 43.7 µM
